According to patent US8039601B1, “Crystalline forms of 1,6-Bis [3-(3-carboxymethylphenyl)-4-(2-α-D-mannopyranosyloxy)-phenyl] hexane” (Revotar Biopharmaceuticals AG, priority 2006, dated 2011):
≈ marks a conversion by molar mass, not a printed value. Blank lines part the entries; values can stand above or below the molecule they belong to.

Experiments:
[1] = Thermodynamic solubility of the polymorphic forms in organic solvents (HPLC quantification); assay type: physicochemical
Procedure: The thermodynamic solubility of FORM 1, FORM 2, FORM 4, and FORM 6 of 1,6-Bis [3-(3-carboxymethylphenyl)-4-(2-α-D-mannopyranosyloxy)-phenyl] hexane (compound of formula (I)) was determined in several organic solvents by suspending sufficient compound to give a maximum final concentration. Quantification was by reverse phase HPLC with gradient solution with reference to a standard solution of FORM B of the compound of formula (I) at 0.25 mg/ml. The suspensions were equilibrated at 27° C. for 24 hours with shaking. All suspensions were filtered though a glass fibre C filter. The filtrate was then diluted by an appropriate factor in 50:50 ethanol:water apart from isopropyl myristate which was diluted in ethanol to avoid emulsion formation.
Solubilities were calculated using the peak areas determined by the peak found at the same retention time as the principal peak in the standard injection.

[2] = Thermodynamic solubility of the polymorphic forms in water (shake flask technique, UV); assay type: physicochemical; conditions: pure water, over night at 25° C., triplicate
Procedure: The thermodynamic solubility of FORM 1, FORM 2, and FORM 3 of 1,6-Bis [3-(3-carboxymethylphenyl)-4-(2-α-D-mannopyranosyloxy)-phenyl] hexane (compound of formula (I)) was determined in water by employing the shake flask technique. The sample was added to pure water in a Safelock-tube (Eppendorf, Germany) under vigorous shaking until a white precipitate was formed. The saturated solution was incubated over night at 25° C. in an Eppendorf Thermomixer operated at 700 RPM. The suspension was cleared by centrifugation at 13.000 RPM at room temperature, and the supernatant was carefully collected. The supernatant was further purified by vacuum-filtration through a Millipore solubility filter plate (Millipore, Molsheim, France).
The UV absorption of the filtrate was measured against pure water using a Spectramax250 (Molecular Devices, Sunnyvale, Calif.) operated with Softmax Pro v. 4.8 software, using the application “Mscreen solubility quantify” in the ADME package. The sample concentration was calculated using a 5-point linear calibration line of the compound of formula (I) in acetonitrile:pure water (1:1 vol:vol). Measurements have been performed in triplicate.

[3] = Triacetin, equilibrated at 27° C. for 24 hours with shaking
[4] = PEG 300, equilibrated at 27° C. for 24 hours with shaking
[5] = ethanol, equilibrated at 27° C. for 24 hours with shaking
[6] = equilibrated at 27° C. for 24 hours with shaking

Solubility in PEG 300 (Polyethylene glycol 300) ([1]; PEG 300, equilibrated at 27° C. for 24 hours with shaking, listed as 4): 159 mg/mL (≈ 184 mM)
Solubility in Triacetin (glycerin triacetate) [1, 3]: 0.02 mg/mL (≈ 0.0232 mM)
Solubility ranking among the FORMS in ethanol (in words) ([1]; ethanol, compared with FORM 1, 2, 4, 6): highest solubility
Solubility in EtOH (Ethanol) ([1]; ethanol, equilibrated at 27° C. for 24 hours with shaking, listed as 4): 48 mg/mL (≈ 55.6 mM)
Solubility in IPA (Isopropyl alcohol) ([1]; equilibrated at 27° C. for 24 hours with shaking, listed as 4): 1.2 mg/mL (≈ 1.39 mM)
Solubility in Propylene Glycol ([1]; propylene glycol, equilibrated at 27° C. for 24 hours with shaking, listed as 4): 165 mg/mL (≈ 191 mM)
SMILES: O=C(O)Cc1cccc(-c2cc(CCCCCCc3ccc(O[C@H]4O[C@H](CO)[C@@H](O)[C@H](O)[C@@H]4O)c(-c4cccc(CC(=O)O)c4)c3)ccc2O[C@H]2O[C@H](CO)[C@@H](O)[C@H](O)[C@@H]2O)c1 [FORM 4, 1,6-Bis [3-(3-carboxymethylphenyl)-4-(2-α-D-mannopyranosyloxy)-phenyl] hexane]

Solubility ranking among the FORMS in PEG 300 (in words) ([1]; PEG 300, compared with other FORMS): highest solubility
Solubility in PEG 300 (Polyethylene glycol 300) [1, 4]: 205 mg/mL (≈ 238 mM)
Solubility ranking among the FORMS in Triacetin (in words) ([1]; Triacetin, compared with other FORMS): highest solubility
Solubility in Triacetin (glycerin triacetate) [1, 3]: 0.056 mg/mL (≈ 0.0649 mM)
Solubility in EtOH (Ethanol) [1, 5]: 4.2 mg/mL (≈ 4.87 mM)
Solubility in IPA (Isopropyl alcohol) [1, 6]: 3.9 mg/mL (≈ 4.52 mM)
solubility at 24 h ([1]; propylene glycol, 27 °C, organic solvent or mixture, thermodynamic from solid, equilibrated at 27° C. for 24 hours with shaking): 199 mg/mL (≈ 231 mM)
Solubility ranking among the FORMS in propylene glycol (in words) ([1]; propylene glycol, compared with other FORMS): highest solubility
solubility ([2]; 25 °C, water, thermodynamic from solid): 0.022 mg/mL (≈ 0.0255 mM)
SMILES: O=C(O)Cc1cccc(-c2cc(CCCCCCc3ccc(O[C@H]4O[C@H](CO)[C@@H](O)[C@H](O)[C@@H]4O)c(-c4cccc(CC(=O)O)c4)c3)ccc2O[C@H]2O[C@H](CO)[C@@H](O)[C@H](O)[C@@H]2O)c1 [FORM 1, 1,6-Bis [3-(3-carboxymethylphenyl)-4-(2-α-D-mannopyranosyloxy)-phenyl] hexane]

Solubility ranking among the FORMS in IPA (in words) ([1]; IPA, compared with FORM 1, 2, 4, 6): highest solubility
Solubility in PEG 300 (Polyethylene glycol 300) ([1]; PEG 300, equilibrated at 27° C. for 24 hours with shaking, listed as 6): 122 mg/mL (≈ 141 mM)
Solubility in EtOH (Ethanol) ([1]; ethanol, equilibrated at 27° C. for 24 hours with shaking, listed as 6): 20 mg/mL (≈ 23.2 mM)
Solubility in IPA (Isopropyl alcohol) ([1]; equilibrated at 27° C. for 24 hours with shaking, listed as 6): 27 mg/mL (≈ 31.3 mM)
Solubility in Propylene Glycol ([1]; propylene glycol, equilibrated at 27° C. for 24 hours with shaking, listed as 6): 170 mg/mL (≈ 197 mM)
SMILES: O=C(O)Cc1cccc(-c2cc(CCCCCCc3ccc(O[C@H]4O[C@H](CO)[C@@H](O)[C@H](O)[C@@H]4O)c(-c4cccc(CC(=O)O)c4)c3)ccc2O[C@H]2O[C@H](CO)[C@@H](O)[C@H](O)[C@@H]2O)c1 [FORM 6, 1,6-Bis [3-(3-carboxymethylphenyl)-4-(2-α-D-mannopyranosyloxy)-phenyl] hexane]

Solubility in water [2]: 0.014 mg/mL (≈ 0.0162 mM)
SMILES: O=C(O)Cc1cccc(-c2cc(CCCCCCc3ccc(O[C@H]4O[C@H](CO)[C@@H](O)[C@H](O)[C@@H]4O)c(-c4cccc(CC(=O)O)c4)c3)ccc2O[C@H]2O[C@H](CO)[C@@H](O)[C@H](O)[C@@H]2O)c1 [FORM 3, 1,6-Bis [3-(3-carboxymethylphenyl)-4-(2-α-D-mannopyranosyloxy)-phenyl] hexane]

Solubility in PEG 300 (Polyethylene glycol 300) [1, 4]: 102 mg/mL (≈ 118 mM)
Solubility in Triacetin (glycerin triacetate) [1, 3]: 0.0083 mg/mL (≈ 0.00962 mM)
Solubility in EtOH (Ethanol) [1, 5]: 4.2 mg/mL (≈ 4.87 mM)
Solubility in IPA (Isopropyl alcohol) [1, 6]: 0.52 mg/mL (≈ 0.603 mM)
Solubility in Propylene Glycol ([1]; propylene glycol, equilibrated at 27° C. for 24 hours with shaking): 104 mg/mL (≈ 121 mM)
Solubility in water [2]: 0.015 mg/mL (≈ 0.0174 mM)
SMILES: O=C(O)Cc1cccc(-c2cc(CCCCCCc3ccc(O[C@H]4O[C@H](CO)[C@@H](O)[C@H](O)[C@@H]4O)c(-c4cccc(CC(=O)O)c4)c3)ccc2O[C@H]2O[C@H](CO)[C@@H](O)[C@H](O)[C@@H]2O)c1 [FORM 2, 1,6-Bis [3-(3-carboxymethylphenyl)-4-(2-α-D-mannopyranosyloxy)-phenyl] hexane]
